The results in this text go back to patent US11046700B2, “Substituted imidazo[1,2-a]pyrazines, pyrazolo[1,5-c]pyrimidines, pyrazolo[1,5-a]pyridines, and purines for the treatment of schistosomiasis” (Merck Patent GmbH, priority 2017, dated 2021).

For data set [1], the system named is S. mansoni adult worms. Nature of the data set: In vitro assay, S. mansoni adult worms. The data set is classed as cell-based. The following applies: Schistosoma mansoni; S. mansoni adult worms, in vitro; read-out: (a) Adult.
Data set [2] concerns S. mansoni juvenile worms. The data set can be described thus: In vitro assay, S. mansoni juvenile worms. Type of data set: cell-based. As to conditions: Schistosoma mansoni; S. mansoni juvenile worms, in vitro; read-out: (b) Juvenile.
Data set [3] relates to S. haemotobium adult worms. Nature of the data set: In vitro assay, S. haemotobium adult worms. The data set is classed as cell-based. The following applies: read-out: (c) S. haemotobium. The method, then:
(§1) The routine biological assays using adult or juvenile worms and cytotoxicity assays using MRC-5 cells have been disclosed previously in Mansour, N. R., et al. (2016). “High Throughput Screening Identifies Novel Lead Compounds with Activity against Larval, Juvenile and Schistosoma mansoni PLoS Negl Trap Dis 10(4): e0004659. Cytotoxicity assays using the HepG2 cell line were carried out as described in Molecular Diversity (2015) 19, 251-261.
(c) S. haemotobium adult worms

The test system of another data set is HepG2 cell line. Nature of the data set: Cytotoxicity against human HepG2 cell lines. Type of data set: cell-based.
The test system of data set [4] is S. mansoni juvenile worms. Nature of the data set: Mouse infection model, juvenile worms, oral treatment day 25 post infection, worm recovery. Type of data set: in vivo, Schistosoma mansoni. The following applies: mice. The method, then: (§2) Methods for the subcutaneous infection of mice and subsequent worm recovery were as described in Mansour et al (2016) except that infection was with 150 cercariae and the perfusion medium was citrate saline (0.9% sodium chloride, 1.5% tri-sodium citrate). Perfusion was carried out 8 days (adult infections) or 15 days (juvenile infections) after treatment. Perfuseate was collected into 30 mL universal tubes. RBC (Red Blood Cells) were removed by allowing the perfuseate to settle for 10 min, removal of most of the supernatant and washing once as above with 10 mL perfusion medium. A drop of dilute aqueous saponin solution was added to lyse any remaining RBC and the worm suspension poured into a grid-marked small petri dish. The tube was rinsed out into the petri dish and examined for any remaining worms. Worms were counted using a dissecting microscope. The mouse livers removed after perfusion were squashed between two thick glass plates and examined visually and any remaining worms added to those counted as above.
(§3) For testing efficacy against the juvenile worms, treatment was on day 25 post infection and for testing against the adult worms on day 42 post infection. Drugs were suspended in 7% Tween-80/3% Ethanol/double distilled water and drug dispersal was facilitated by vortexing and using a sonicating water bath (Formulation F1). Alternatively, drugs were suspended in 10% DMSO, 90% double distilled water containing 50 mM Na2HPO4 with 0.5% Tween-80 by first dissolving or suspending the drug in DMSO then adding the DMSO solution/suspension to the aqueous solution (Formulation F2). In a further set of conditions, drugs were first dissolved in DMSO, then diluted with corn oil to give a 5% DMSO+drug solution/suspension (Formulation F3)
(§4) The drug solution/suspensions were given by oral gavage at the rate of 10 ml/kg. Positive controls (artemether for juvenile worms and praziquantel for adult worms) were used in each experiment.

Data set [5] concerns S. mansoni adult worms. Nature of the data set: Mouse infection model, adult worms, oral treatment day 42 post infection, worm recovery. The data set is classed as in vivo, Schistosoma mansoni. As to conditions: mice. As to the method: as §2, §3, §4
A further data set concerns MRC-5 cells. Nature of the data set: Cytotoxicity against human MRC-5 cell line. Type of data set: cell-based. As to the method:
as §1
(d) Cytotoxicity against human MRC-5 cell line

[6] abbreviates: oral 6.25 mg/kg, Formulation F3, negative control 32.6 ± 10.6.
Setting [7] is: oral 200 mg/kg, Formulation F1, negative control 38.8 ± 5.4.
Where [8] appears, read: oral 50 mg/kg, Formulation F1, negative control 33.0 ± 7.2.
Where [9] appears, read: oral 6.25 mg/kg, Formulation F1, negative control 33.8 ± 4.1.
Where [10] appears, read: oral 12.5 mg/kg, Formulation F1, negative control 33.8 ± 4.1.
Where [11] appears, read: oral 25 mg/kg, Formulation F1, negative control 33.2 ± 9.09.
The mark [12] stands for this setting: oral 5 mg/kg, Formulation F2, negative control 33.2 ± 9.09.
Where [13] appears, read: oral 25 mg/kg, Formulation F2, negative control 33.2 ± 9.09.
The mark [14] stands for this setting: oral 50 mg/kg, Formulation F1, negative control 33.8 ± 4.1.
Where [15] appears, read: oral 100 mg/kg, Formulation F1, negative control 33.8 ± 4.1.
Where [16] appears, read: oral 400 mg/kg, Formulation F1, negative control 33.8 ± 4.1.
The mark [17] stands for this setting: oral 400 mg/kg, Formulation F1, negative control 38.8 ± 5.4.
[18] abbreviates: oral 50 mg/kg, Formulation F1, negative control 33.2 ± 9.09.

Where only a bound is given, the exact number is not on record here.

With `Cc1nc2cnc(-c3ccc(F)c(C(F)(F)F)c3)cn2c1-c1c(F)cc(O)cc1F` [Example 16, 3,5-difluoro-4-[2-methyl-6-[4-fluoro-3-(trifluoromethyl)phenyl]imidazo[1,2-a]pyrazin-3-yl]phenol], the IC50 in the data set on S. mansoni adult worms [1] came to 120 nM; in data set [2], 220 nM; in data set [3], 40 nM. Moreover, the “(e) Cytotox HepG2” value in the data set with HepG2 cell line came out at 7.6 µM.
In the case of `Fc1ccc(-c2cn3c(-c4ccc5[nH]ncc5c4F)c(C(F)(F)F)nc3cn2)cc1C(F)(F)C(F)(F)F` [Example 63, 3-(4-Fluoro-1H-indazol-5-yl)-6-(4-fluoro-3-pentafluoroethyl-phenyl)-2-trifluoromethyl-imidazo[1,2-a]pyrazine], the IC50 is 11 nM in the data set with S. mansoni adult worms [1], 10 nM in data set [2] and < 6 nM in data set [3]. Also, the “(e) Cytotox HepG2” value in the data set on HepG2 cell line is 11.7 µM. Besides, in data set [4] (setting [6]), the Mean worm recovery came to 0.6 ± 1.0. Further, in data set [4] (setting [6]), the Percent worm reduction came to 98%.
As for `CC(C)c1nc2cnc(-c3ccc(F)c(C(F)(F)F)c3)cn2c1-c1c(F)cc(O)cc1F` [Example 17, 3,5-difluoro-4-[2-(propan-2-yl)-6-[4-fluoro-3-(trifluoromethyl)phenyl]imidazo[1,2-a]pyrazin-3-yl]phenol], the IC50 with S. mansoni adult worms [1] worked out at 44 nM; in data set [2], 26 nM; in data set [3] it was 23 nM. Further, the “(e) Cytotox HepG2” value with HepG2 cell line amounted to 7.1 µM. Besides, the Mean worm recovery in the data set with S. mansoni adult worms [5] (setting [7]) is 0.3 ± 0.8; in data set [4] (setting [8]), 20.6 ± 8.5; in data set [4] (oral 200 mg/kg, Formulation F1, negative control 33.0 ± 7.2) it was 5.2 ± 3.1. Moreover, the Percent worm reduction in the data set with S. mansoni adult worms [5] (setting [7]) was 99%.
Take `Fc1ccc(-c2cn3c(-c4ccc5[nH]ncc5c4F)c(C(F)(F)F)nc3cn2)cc1C(F)(F)F` [Example 50, 3-(4-Fluoro-1H-indazol-5-yl)-6-(4-fluoro-3-trifluoromethylphenyl)-2-trifluoromethyl-imidazo[1,2-a]pyrazine]: in data set [2], the IC50 was found to be 60 nM. The Mean worm recovery with S. mansoni adult worms [5] (setting [9]) is 7.4 ± 8.1; in the data set with S. mansoni adult worms [5] (setting [10]) it was 0.2; in data set [4] (setting [6]) it was 17.6 ± 12.0; in data set [4] (setting [11]) it was 0.8 ± 0.84. The Percent worm reduction in the data set on S. mansoni adult worms [5] (setting [9]) came out at 78%; with S. mansoni adult worms [5] (setting [10]), 99%; in data set [4] (setting [6]) it was 46%; in data set [4] (setting [11]), 98%.
For the molecule `CCc1nc2cnc(-c3cccc(C(F)(F)F)c3)cn2c1-c1ccc(OC)c(O)c1` [Example 7, 2-methoxy-5-[2-ethyl-6-[3-(trifluoromethyl)phenyl]imidazo[1,2-a]pyrazin-3-yl]phenol], the IC50 in the data set with S. mansoni adult worms [1] was found to be 90 nM; in data set [2] it was 82 nM. For the same molecule, the “(d) Cytotox MRC-5” value with MRC-5 cells is >50 µM. For the same molecule, the “(e) Cytotox HepG2” value with HepG2 cell line was >30 µM.
As to `CCc1nc2cnc(-c3cccc(C(F)(F)F)c3)cn2c1-c1ccc(O)cc1F` [Example 8, 3-fluoro-4-[2-ethyl-6-[3-(trifluoromethyl)phenyl]imidazo[1,2-a]pyrazin-3-yl]phenol], the IC50 was 100 nM in the data set on S. mansoni adult worms [1], 86 nM in data set [2] and < 1560 nM in data set [3]. In addition, in the data set with MRC-5 cells, the “(d) Cytotox MRC-5” value was determined as 17.3 µM. Besides, the “(e) Cytotox HepG2” value in the data set with HepG2 cell line was 18.7 µM.
`Fc1c(-c2c(C(F)(F)F)nc3cnc(-c4cccc(C(F)(F)C(F)(F)F)c4)cn23)ccc2[nH]ncc12` [Example 29, 4-fluoro-5-{2-trifluoromethyl-6-[3-(pentafluoroethyl)phenyl]imidazo[1,2-a]pyrazin-3-yl}-1H-indazole]: the IC50 with S. mansoni adult worms [1] was found to be 30 nM; in data set [2], 28 nM. The “(e) Cytotox HepG2” value with HepG2 cell line stood at 8.9 µM. For the same molecule, the Mean worm recovery in data set [4] (setting [12]) is reported as 14.8 ± 6.61; in data set [4] (setting [6]), 2.0 ± 2.6; in data set [4] (setting [13]), 4 ± 1.41. Also, the Percent worm reduction in data set [4] (setting [12]) is given as 55%; in data set [4] (setting [6]), 94%; in data set [4] (setting [13]) it was 88%.
Take `COc1cc(-c2c(C(C)C)nc3cnc(-c4cccc(C(F)(F)F)c4)cn23)cc2cn[nH]c12` [Example 22, 7-methoxy-5-{2-(propan-2-yl)-6-[3-trifluoromethylphenyl]imidazo[1,2-a]pyrazin-3-yl}-1H-indazole]: the IC50 with S. mansoni adult worms [1] came out at 430 nM; in data set [2], 530 nM; in data set [3] it was 150 nM.
In the case of `O=C(C1CCCCC1)N1CC(=O)N2CCc3ccccc3C2C1` (centres unmarked) [Praziquantel, praziquantel], the Mean worm recovery was 29.8 ± 8.4 with S. mansoni adult worms [5] (setting [14]); 12.2 ± 6.3 with S. mansoni adult worms [5] (setting [15]); 2.6 ± 1.5 in the data set on S. mansoni adult worms [5] (setting [16]); 2.3 ± 1.7 in the data set on S. mansoni adult worms [5] (setting [17]); 26.2 ± 9.44 in data set [4] (setting [18]). In addition, the Percent worm reduction in the data set with S. mansoni adult worms [5] (setting [14]) worked out at 13%; in the data set with S. mansoni adult worms [5] (setting [15]) it was 64%; in the data set on S. mansoni adult worms [5] (setting [16]), 92%; with S. mansoni adult worms [5] (setting [17]), 94%; in data set [4] (setting [18]) it was 21%.
For the molecule `COc1ccc(-c2c(C(C)C)nc3cnc(-c4cccc(C(F)(F)F)c4)cn23)cc1O` [Example 1, 2-methoxy-5-[2-(propan-2-yl)-6-[3-(trifluoromethyl)phenyl]imidazo[1,2-a]pyrazin-3-yl]phenol], the IC50 in the data set with S. mansoni adult worms [1] is 58 nM; in data set [2], 13 nM; in data set [3], < 195 nM. In addition, the “(d) Cytotox MRC-5” value in the data set on MRC-5 cells was 21.8 µM. In the data set on HepG2 cell line, the “(e) Cytotox HepG2” value is >11.1 µM.
In the case of `Cc1nc2cnc(-c3cccc(C(F)(F)F)c3)cn2c1-c1ccc(O)cc1F` [Example 6, 3-fluoro-4-[2-methyl-6-[3-(trifluoromethyl)phenyl]imidazo[1,2-a]pyrazin-3-yl]phenol], the figures for the IC50 (in the data set on S. mansoni adult worms [1]; in data set [2]) were 290 nM and 480 nM, respectively. In addition, the “(d) Cytotox MRC-5” value in the data set with MRC-5 cells turned out to be 15.8 µM.
Regarding `Cc1nc2cnc(-c3ccc(F)c(C(F)(F)F)c3)cn2c1-c1ccc(O)cc1F` [Example 10, 3-fluoro-4-[2-methyl-6-[4-fluoro-3-(trifluoromethyl)phenyl]imidazo[1,2-a]pyrazin-3-yl]phenol], the IC50 in the data set on S. mansoni adult worms [1] was < 780 nM; in data set [2] it was 530 nM. In addition, the “(d) Cytotox MRC-5” value in the data set with MRC-5 cells is 14.4 µM. In the data set with HepG2 cell line, the “(e) Cytotox HepG2” value is >11.1 µM.
As for `CC(C)c1nc2cnc(-c3ccc(F)c(C(F)(F)F)c3)cn2c1-c1ccc2[nH]ncc2c1F` [Example 2, 4-fluoro-5-{6-[4-fluoro-3-(trifluoromethyl)phenyl]-2-(propan-2-yl)imidazo[1,2-a]pyrazin-3-yl}-1H-indazole], the IC50 in the data set with S. mansoni adult worms [1] was 47 nM; in data set [2], 19 nM. Also, in the data set with HepG2 cell line, the “(e) Cytotox HepG2” value worked out at 10.4 µM. Also, the Mean worm recovery in data set [4] (setting [11]) came out at 7.2 ± 3.9; in data set [4] (setting [13]), 4.4 ± 3.91; in data set [4] (setting [8]) it was 4.0 ± 4.1. Besides, the Percent worm reduction in data set [4] (setting [11]) is listed as 78%; in data set [4] (setting [13]), 87%; in data set [4] (setting [8]) it was 88%.
For the molecule `CC(C)c1nc2cnc(-c3cccc(C(F)(F)F)c3)cn2c1-c1ccc(O)cc1F` [Example 9, 3-fluoro-4-[2-(propan-2-yl)-6-[3-(trifluoromethyl)phenyl]imidazo[1,2-a]pyrazin-3-yl]phenol], the figures for the IC50 (in the data set on S. mansoni adult worms [1]; in data set [2]) were 76 nM and 79 nM, respectively. For the same molecule, the “(d) Cytotox MRC-5” value with MRC-5 cells came out at 13.7 µM. Also, in the data set on HepG2 cell line, the “(e) Cytotox HepG2” value was 9 µM.
